Results on eleven molecules are retold here after patent US5137906A, “Treatment of central nervous system disorders with benzimidazole angiotensin-II receptor antagonists” (E. I. Du Pont de Nemours and Company, priority 1990, dated 1992).

Entries after “also recorded” stand apart in the source; their conditions may differ.

Assay [1] relates to AII receptor subtype-2 (AII-2). The note with it: cited from earlier work.
Assay [2] relates to AII binding sites in the brain. Description: binding of AII antagonists to sections of brain slices. To be noted: in words.
For assay [3], the system named is AII receptor subtype-1 (AII-1). The note with it: cited from earlier work.
Assay [4] concerns renin-induced disruption of passive avoidance retention. Description: renin-disrupted passive avoidance retention. It counts as in vivo, male Sprague-Dawley rats. To be noted: for protection against / prevention of renin-induced amnesia: co-administered with renin IVT. As for the experimental part:
Experimentally naive male Sprague-Dawley rats 100 to 125 days old (Charles River Breeding Laboratories, Kingston, N.Y.), weighing between 175 to 200 gm were used. The animals were housed four per cage (45.0 L×20.0 H×26.0 W cm) with free access to food and water. They were maintained on a 12 h light/dark cycle (lights on 0600 h) and at a room temperature of 22°±1° C. with relative humidity of 50±10%.
The experimental sessions were conducted in a two-compartment passive avoidance box. One compartment, made of clear plastic with a perforated clear plastic floor, measured 21(L)×24.5(H)×17(W) cm and was illuminated with a 60 watt incandescent light bulb placed 36 cm above the floor. The other compartment, made of black plastic, measured 30.5 (L)×20.3 (H)×21.5 (W) cm with a floor made of 4 mm stainless steel rods spaced 1.2 cm apart. A grid floor shocker (Coulbourn Instruments) was connected to the steel rods and provided scrambled footshock. The two compartments were separated by a solenoid-operated slide door (Lafayette Instrument Co., Lafayette, Ind.). An electronic counter (Coulbourn Instruments), triggered by the opening or closing of the slide door, recorded acquisition and retention latencies (latencies were defined as the time it took an animal to enter the dark compartment).
Passive avoidance training began by placing the rat into the clear compartment of the two-compartment passive avoidance box. Following a 10 sec delay, the slide door for the dark compartment was raised. Once the rat moved completely into the dark compartment (all four paws on the shock grid floor) the slide door was lowered, and after a 10 sec. delay, a 1.0 mA shock was applied to the grid floor for three sec. A second three s shock was delivered after an additional 10 sec delay. The rats were immediately removed from the dark compartment and returned to their home cage. A retention test was given 24 h later. It proceeded in the same manner as the training session except that no shock was applied to the grid floor when the rats were provided access to the dark compartment for a maximum of 300 sec.
Doses are expressed as the free base weight of each compound.

Assay [5] concerns ACh in the striatum and hypothalamus. To be noted: in words; acute or repeated administration; cited from earlier work.
Another assay concerns uphill avoidance. The note with it: in words; 30 mg/kg PO, acute; cited from earlier work.
The subject of assay [6] is scopolamine-induced amnesia of a PA response. The note with it: in words; 1, 3 and 10 mg/kg PO three times per day; cited from earlier work.
For assay [7], the system named is scopolamine-induced impairment of eight arm radial maze performance. To be noted: in words; 3 mg/kg IP; cited from earlier work.
The next assay has as its system avoidance learning. To be noted: in words, cited from earlier work.
Assay [8] has as its system anticholinergic scopolamine-induced disruption of performance. To be noted: in words; daily treatment; cited from earlier work.
The subject of assay [9] is light/dark habituation performance. To be noted: in words; subchronic treatment; cited from earlier work.
In assay [10] the test system is passive avoidance (PA) response. The note with it: in words; injected into dorsal neostriatum; cited from earlier work.
For assay [11], the system named is release of ACh in entorhinal cortex from rat brain. To be noted: in words; cited from earlier work.
Assay [12] deals with AII in cerebrospinal fluid (CSF). To be noted: after renin into lateral ventricle; increased from 40; cited from earlier work.
[13] abbreviates: compound 10 μg/5 μL IVT + renin 1.0 μg/5 μL IVT.
The mark [14] stands for this setting: compound 30 μg/5 μL IVT + renin 1.0 μg/5 μL IVT.
Where [15] appears, read: compound 100 μg/5 μL IVT + renin 1.0 μg/5 μL IVT.

For `O[C@H](CS)[C@H](O)CS` (racemic) [DTT, dithiothreitol], the “inactivation of AII-2 receptor by DTT” value in assay [1] (in words) was “resistant”. Besides, the “sensitivity of AII binding sites in the brain, minor clusters (AII-1 receptors)” value in assay [2] (AII-1) was “DTT-sensitive”. In addition, the “sensitivity of the majority of AII binding sites in the brain (AII-2 receptors)” value in [2] is given as “DTT-sensitive”. Further, the “inactivation of AII-1 receptor by DTT” value in assay [3] (in words) is “particularly sensitive to inactivation”.

On to `CCCc1nc(C(F)(F)F)c(C(=O)O)n1Cc1ccc(-c2ccccc2-c2nnn[nH]2)cc1` [Compound C, 2-n-propyl-1-[(2'-(1H-tetrazol-5-yl)biphenyl-4-yl)methyl]-4-trifluoromethylimidazole-5-carboxylic acid], for which the “Median Retention Latency” value in assay [4] (setting [13]) was 264 s; in assay [4] (setting [14]) it was 300 s; in assay [4] (setting [15]), 34.5 s. Also, in [4] (in words), the “protection against / prevention of renin-induced amnesia” value (from here on “protection against / prevention”) is on record as “protected against the amnesia”.

For `CCCc1nc(C(F)(F)F)c(CO)n1Cc1ccc(-c2ccccc2-c2nnn[nH]2)cc1` [Compound D, 2-n-propyl-5-hydroxymethyl-1-[(2'-(1H-tetrazol-5-yl)biphenyl-4-yl)methyl]-4-trifluoromethylimidazole], the entries for the “Median Retention Latency” value in assay [4] (setting [14]) and in assay [4] (setting [15]) were 242 s and 10 s, respectively. For the same molecule, the “protection against / prevention” value in assay [4] (in words) is given as “protected against the amnesia”.

On to `Cc1cc(Cn2cnc3c2CC(C(=O)O)N(C(=O)C(c2ccccc2)c2ccccc2)C3)ccc1N` (stereo not drawn) [EXP655, 1-(4-amino-3-methylphenyl)methyl-5-diphenylacetyl-4,5,6,7-tetrahydro-1H-imidazo[4,5-c]pyridine-6-carboxylic acid], for which the IC50 in [1] (AII-2 site, rat adrenal cortex, Chiu et al. 1989, read-out: inhibitory constant IC50 value) is about 0.1 µM; in assay [3] (AII-1 site, rat adrenal cortex, Chiu et al. 1989, read-out: inhibitory constant IC50 value) it was about 300 µM. Besides, the “Median Retention Latency” value came to 19 s in assay [4] (compound 0.1 μg/5 μL IVT + renin 1.0 μg/5 μL IVT); 22 s in assay [4] (compound 0.3 μg/5 μL IVT + renin 1.0 μg/5 μL IVT); 15 s in assay [4] (compound 1.0 μg/5 μL IVT + renin 1.0 μg/5 μL IVT); 29 s in [4] (compound 3.0 μg/5 μL IVT + renin 1.0 μg/5 μL IVT); 15 s in [4] (setting [13]); 67 s in [4] (setting [14]). For the same molecule, the “Median Retention Latency” value in assay [4] (setting [15]) stood at 16 s. Further, the “protection against / prevention” value in assay [4] (in words) is reported as “much less effective in preventing the amnesia”. Besides, in assay [2], the “sensitivity of the majority of AII binding sites in the brain (AII-2 receptors)” value was “EXP655-sensitive”. Moreover, the “affinity/specificity for the AII-1 site” value in [3] (in words, rat adrenal cortex) was “very low affinity”.

For `CCOC(=O)C(CCc1ccccc1)NC(C)C(=O)N1CC2(CC3CCC2CC3)CC1C(=O)O` (stereo not drawn) [Hoe 288], the “change in ACh in the striatum and hypothalamus” value in assay [5] is “significant decrease in ACh in the striatum and hypothalamus”. Besides, in the assay with uphill avoidance, the “performance during retention testing, uphill avoidance” value is on record as “improved performance during retention testing”. In [6], the “effect on scopolamine-induced PA amnesia” value was “partially reversed the amnesia”. Further, the “effect on muscarinic receptor blockade impairment of performance” value in assay [7] is “partially antagonized the effects of muscarinic receptor blockade on performance”.

In the case of `C[C@H](CS)C(=O)N1CCC[C@H]1C(=O)O` [captopril], in assay [4] (in words, own laboratory, captopril IVT), the “prevention of renin-induced amnesia in PA task by IVT captopril” value was “prevented”. In addition, the “effect on renin-induced avoidance disruption” value in the assay on avoidance learning (IVT prior to renin injection) is “prevented the renin-induced avoidance disruption”. Also, in [8], the “effect on scopolamine-induced disruption of performance” value is “prevented”. Also, in assay [9], the “rate of acquisition of light/dark habituation performance” value is listed as “increased the rate of acquisition”.

Regarding `NC(=O)[C@@H]1CCCN1C(=O)[C@H](Cc1cnc[nH]1)NC(=O)[C@@H]1CCC(=O)N1` [thyrotropin releasing hormone], the “effect on retention of a PA response” value in [10] is “no effect”.

As to “Angiotensin II (DRVYIHPF; Angiotensin-2; UniProt P01019 25-32, looked up) [AII]”, in [10], the “effect on retention of a PA response” value is recorded as “disruption in retention of a PA response”. In assay [11], the “effect on basal levels of ACh release” value is “without effects on basal levels” and the “effect on potassium-stimulated release of ACh” value is reported as “reduced potassium-stimulated release of ACh”.

Turning to “[1-sarcosine, 8-threonine]angiotensin II”, the “antagonism of AII effect on ACh release” value in assay [11] is on record as “antagonized”.

Turning to lysine-8-vasopressin, in assay [10], the “effect on retention of a PA response” value is on record as “no effect”.

B1: renin: Renin (Sigma Chemicals), a stimulator of endogenous AII biosynthesis (protein, UniProt P00797 67-406, looked up)
Renin: LTLGNTTSSVILTNYMDTQYYGEIGIGTPPQTFKVVFDTGSSNVWVPSSKCSRLYTACVYHKLFDASDSSSYKHNGTELTLRYSTGTVSGFLSQDIITVGGITVTQMFGEVTEMPALPFMLAEFDGVVGMGFIEQAIGRVTPIFDNIISQGVLKEDVFSFYYNRDSENSQSLGGQIVLGGSDPQHYEGNFHYINLIKTGVWQIQMKGVSVGSSTLLCEDGCLALVDTGASYISGSTSSIEKLMEALGAKKRLFDYVVKCNEGPTLPDISFHLGGKEYTLTSADYVFQESYSSKKLCTLAIHAMDIPPPTGPTWALGATFIRKFYTEFDRRNNRIGFALAR
As for B1, the “Median Retention Latency” value turned out to be 254 s in assay [4] (Table 1, renin 0.1 μg/5 μL IVT); 117 s in [4] (Table 1, renin 0.5 μg/5 μL IVT); 27 s in [4] (Table 1, renin 1.0 μg/5 μL IVT); 56.5 s in assay [4] (Table 1, renin 3.0 μg/5 μL IVT); 17 s in assay [4] (Table 1, renin 5.0 μg/5 μL IVT); 48 s in assay [4] (Table 2, renin 1.0 μg/5 μL IVT, Compound C 0 (renin-alone group)). Besides, the “Median Retention Latency” value in assay [4] (Table 3, renin 1.0 μg/5 μL IVT, Compound D 0 (renin-alone group)) was determined as 32 s; in [4] (Table 4, renin 1.0 μg/5 μL IVT, EXP655 0 (renin-alone group)) it was 15.5 s. Besides, the “memory deficit / amnesia in PA task” value in assay [4] (in words, renin IVT) is listed as “produces a reliable memory deficit in rats; also recorded: dose-related amnesia”. In addition, the “AII in cerebrospinal fluid” value in [12] is given as “about 5000 fmol per mL”. Further, the “effect on avoidance learning” value in the assay with avoidance learning (renin into lateral ventricle (IVT)) is recorded as “disruption of avoidance learning”.
